For assay [1], the system named is native cockroach ryanodine receptors (in embryonic neuronal cells). Description: Calcium release assay, calcium imaging in primary embryonic cockroach neuronal cells. The assay is classed as cell-based, Periplaneta americana. From the text: Embryonic neuronal cultures of the American cockroach Periplaneta americana were established, with minor modifications, following the method of Beadle and Lees (1988) (in Cell Culture Approaches to Invertebrate Neuroscience, Academic Press, New York, pp 123-127). Briefly, 26-27-day old oothecae were collected, surface-sterilized and cut open along a line one-third of the distance below the dorsal midline. The heads were removed and placed in Schneider's Drosophila medium (Invitrogen Life Technologies™, Carlsbad, Calif.). Using fine forceps 40 brains were individually removed and placed in a small glass vial containing 700 μl of ‘5+4’ medium (‘5+4’ medium contained 5 parts Schneider's Drosophila medium plus 4 parts roach Basal Medium Eagle, with Earle's salts (BME, Sigma™, St. Louis, Mo.). Roach BME (with Earle's salts) contained 5 parts Hepes (1 M), 1 part penicillin/streptomycin and 44 parts BME (with Earle's salts). ‘5+4’ medium was made fresh and sterile filtered (0.2 μm filter) just prior to use). The brains were dissociated by sequential trituration as follows: 1) brains were passed through a standard Pasteur pipette 10 times; 2) the resulting tissue suspension was passed an additional 5 times through a Pasteur pipet with tip flamed to about half of its original diameter; 3) a final 5 passes were performed using a Pasteur pipet with tip flamed to slightly less than half of its original diameter. A repeat pipettor was used to dispense a 5 μl volume of the resulting suspension into the center of each well of a 96-well, glass-bottom plate previously coated with poly-L-lysine (0.2 mg/ml solution). Cells attached to the bottom of the wells during a 50 min incubation at 27-29° C. 150 ul of a 1:1 mixture of Leibovitz's L-15 medium and Yunker's modified Grace's medium was added, and plates were maintained in a humid incubator at 27-29° C. until use. After cells were allowed to attach wells were filled with a 1:1 mixture of Leibovitz's L-15 medium and Yunker's modified Grace's medium (Leibovitz's L-15 and Grace's medium were obtained from Invitrogen Life Technologies™, Carlsbad, Calif. and Yunker's modified Grace's medium was made with Grace's medium modified by addition of 5 mg L-methionine, 10 mg L-alanine, 182 mg MgCl26H20, 1 g Albumin Fraction V, 7 ml Fetal bovine serum, 10 ml Chick embryo extract, 2 ml Penicillin/Streptomycin, and 2 mg 20-hydroxyecdysone (prepared in ethanol prior to addition) to a final volume of 100 ml and sterile filtered (0.2 μm filter)). Cells were maintained in a high humidity incubator at 29° C. until testing.
Cells were rinsed in standard physiological saline having the following composition (mM): NaCl 190; CaCl2 9; KCl 3.1; probenicid 1; Tris buffer 10; pH 7.2. Cells were then bathed in standard physiological saline containing the calcium sensitive fluoroprobe Fluo4 AM (2 μM) and Pluronic F127 (0.002%) for 45 min. Cells were then rinsed in standard physiological saline for at least 15 min prior to testing. Within the hour prior to testing, standard physiological saline was replaced with standard physiological saline containing the organic cation channel blocker pimozide (10 μM), to inhibit influx of external calcium through voltage-gated calcium channels. The 96-well plate was placed on a PriorTm motorized stage mounted onto a Nikon Diaphot microscope and imaged using a 20× Fluor objective (NA 0.75). Individual wells from the 96-well plate were sequentially excited with light at 495 nm, and the emitted fluorescence at 530 nm was detected using a Hamamatsu ORCA ER digital camera with 2 pixel binning (image size 672×512 pixels).
Acquisition control, image processing and image analysis were conducted using Universal Imaging Corporation's MetaMorph™ imaging software (Universal Imaging, West Chester, Pa.). A series of 3 “control” images were acquired for each well. Experimental compounds were added followed by acquisition of 4 “experimental” images for each well. […]

For assay [2], the system named is recombinant Heliothis virescens ryanodine receptor (expressed in Sf9 cells). Nature of the assay: Calcium release assay in Sf9 cells expressing recombinant Heliothis virescens ryanodine receptor. The assay is classed as cell-based. Particulars: caffeine 10 mM; for cytosolic [Ca2+], Sf9 transiently expressing H. virescens ryanodine receptor (FIG. 4): 72 hr post-transfection, Cpd 5 3 μM. The source says: (§1) Several drops of a suspension of recombinant Spodoptera frugiperda cell line, Sf9, transiently expressing insect ryanodine receptors were placed on a poly-L-lysine-coated coverslip and allowed to attach. Cells were then rinsed in physiological saline having the following composition (mM): NaCl 130; KCl 5.4; MgCl2 1.2; CaCl2 1.0; NaHCO3 4.2; NaH2P04 7.3; Glucose 10; Sucrose 63; MES 20; pH 6.3. Cells were then bathed in physiological saline containing the calcium sensitive fluoroprobe, Fura-2 AM (2 μM), and Pluronic F127 (0.002%) for 30 min. Cells were rinsed in standard physiololgical saline for at least 15 min prior to testing. Testing was conducted in standard physiological saline, as the cell lines are devoid of functional voltage-gated calcium channels.
(§2) Imaging studies were conducted using a Nikon Diaphot microscope with a 40× oil immersion objective (NA 1.3) Image acquisition and processing was performed using the MetaFluor™ imaging system from Universal Imaging Corporation (West Chester, Pa.) Calcium calibration was carried out using the Grynkiewicz equation with a dissociation constant (Kd) of 145 nM for Fura-2 (Grynkiewicz et al., 1985). Cell-attached coverslips were placed in a sealed chamber with physiological saline continuously perfused across the cells using a peristaltic pump. Test compounds solubilized in physiological saline were applied by switching the perfusate source.
(§3) For studies involving the stable recombinant Spodoptera frugiperda cell line, Sf9, (other cell lines could also be used such as Sf21, S2, etc) expressing an insect ryanodine receptor from Drosophila melanogaster, or Heliothis virescens (alternatively receptors from other species such as Myzus persicae, Peregrinus maidis, Aphis gossypii, etc) were grown in T75 (or other appropriate sized) flasks in supplemented Grace's insect medium. Cells were maintained in an incubator at 22° C. until testing. Cells were suspension-loaded with the calcium sensitive fluoroprobe, Fura-2 AM (1-2 μM) and Pluronic F127 (0.002%) in culture medium for 30 minutes under agitation. Cells were then centrifuged and the pellet resuspended in physiological saline having the following composition (mM): NaCl 130; KCl 5.4; MgCl2 1.2; CaCl2 1.0; NaHCO3 4.2; NaH2P04 7.3; Glucose 10; Sucrose 63; MES 20; pH 6.3 at approximately 150,000-200,000 cells per well (96-well plate). After a 30 minute equilibration period the cell plate was tested using a Molecular Devices' FlexStation™ system with dual wavelength excitation (340 and 380 nm) and fluorescence emission measured at 510 nm. Test and control samples were added using integrated fluidics and the intracellular calcium monitored over a 2 minute period.

Assay [3] relates to control Sf9 cells without DNA / wild type Sf9. Nature of the assay: Calcium response in control or wild-type Sf9 cells lacking recombinant receptor. The assay is classed as cell-based, Spodoptera frugiperda. The following applies: for calcium responses in control cells without DNA (FIG. 4): Compound 5 3 μM.
Source text: as §1, §2, §3

The target of assay [4] is T1, recombinant Drosophila melanogaster ryanodine receptor (expressed in Sf9 cells) (Drosophila melanogaster, UniProt Q24498).
T1 construct: His tag + attB1 + Lox footprint (N-terminal vector extension; present only if the Cre-Lox vector was the one used) (N); expressed in transfected cells
It is filed as cell-based.
Source text: as §1
Cell-attached coverslips were placed in a sealed chamber with physiological saline continuously perfused across the cells using a peristaltic pump. Test compounds solubilized in physiological saline were applied by switching the perfusate source.
as §3

Assay [5] has as its target cockroach ryanodine receptor (roach femoral muscle membranes) (Periplaneta americana, UniProt Z9HFG3YSF4). Description: Radioligand displacement ([3H]-GN analog Cpd 1) from roach femoral muscle membranes. The following applies: read-out: Displacement IC50 (nM) P. americana; displacement of [3H]-Cpd 1, roach muscle membranes, 60 min at 32° C.
Protocol: Mid and hind legs from 6-9 week old cockroaches were excised and immediately placed in liquid nitrogen. Excised legs could be stored at −80° C. for several months, if necessary, prior to further fractionation. Typically, membrane preparations started with approximately 55 g (wet weight) of excised legs. All subsequent steps were carried out at 4° C.
The legs were homogenized on ice using a Polytron (Brinkmann Instruments, Westbury, N.Y.) for 2 min at Setting #3. In order to remove all fragments of cuticle, the homogenate was first passed through two layers of cheesecloth and then through one layer of glass wool overlaid on two layers of cheesecloth. On occasion, the cheesecloth clogged with particulates prior to passing all material through. In such cases, fresh cheesecloth (and glass wool) was used for the remainder of the suspension. […] The supernatant was collected and centrifuged for 30 min at 30,000×gmax. The resulting pellet was resuspended in buffer A (1.5 M KCl, 0.3 M sucrose, 0.5 mM CaCl2, 20 mM Tris-HCl, pH 8.0). The membrane suspension was homogenized by hand (about 25 strokes) using a glass-teflon homogenizer. […] Subsequently, the membrane suspension was adjusted to 4 μg protein/μg by addition of buffer A and then stored in 1 ml aliquots at −80° C.
The assay was begun by addition of 25 μl of roach muscle membranes at 2 μg/μl (prepared by thawing and addition of an equal volume of buffer B), and incubation was carried out for 60 min at 32° C. Assays were carried out in triplicate.
The compound was allowed to pre-incubate with the membranes for 10 min at 32° C. […] Assays were carried out in triplicate.
Following incubation, assays were quenched with ice-cold buffer B and immediately filtered on pre-wefted Unifilter 96 GF/B filter microplates using a Unifilter 96 Harvester (PerkinElmer™, Boston, Mass.). Each assay well was then washed 10 times with buffer B, and collected on the same filter microplate. The filter microplates were then placed in a vacuum oven at 32° C. for 3 h, following which 50 μl of Microscint 0 (PerkinElmer™, Boston, Mass.) was added to each well. Plates were then heat sealed and counted using a Topcount microplate scintillation counter (PerkinElmer™, Boston, Mass.).

As to `Cn1c(=O)c2c(ncn2C)n(C)c1=O` [Caffeine], in assay [1] (known ryanodine receptor agents, native receptors in embryonic neuronal cells, result in words), the “Calcium Release (P. americana)” value is “Agonist”. Further, the “cytosolic [Ca2+], Sf9 transiently expressing H. virescens ryanodine receptor (FIG. 4)” value in assay [2] was “increase in cytosolic [Ca^2+]”. Moreover, in assay [2] (Compound 14 1 μM, Fura-2 AM imaging), the “calcium responses, Sf9 stably expressing H. virescens ryanodine receptor (FIG. 5)” value was “calcium responses elicited”. Further, in assay [3] (Sf9-WT, FlexStation, Fura-2), the “caffeine dose response, wild-type Sf9 cells (FIG. 6)” value is reported as “insensitive”. Besides, in assay [3] (caffeine 10 mM), the “response of lipid only (-DNA) or non-transfected cells” value is on record as “do not exhibit significant response” and the “calcium responses in control cells without DNA (FIG. 4)” value is reported as “No significant calcium responses”. In assay [3] (caffeine 10 mM, Compound 16 10 and 100 nM), the “calcium responses in control cells without DNA (FIG. 3)” value is “No significant calcium responses”.
In the case of `Cc1cccc(C(=O)NC(C)C)c1NC(=O)c1cc(C(F)(F)F)nn1-c1ncccc1Cl` [Cpd 5, 1-(3-Chloro-2-pyridinyl)-N-[2-methyl-6-[[(1-methylethyl)amino]carbonyl]phenyl]-3-(trifluoromethyl)-1H-pyrazole-5-carboxamide], the “Calcium Release Threshold (nM) P. americana” value in assay [1] was less than 300 nM. Moreover, the “Calcium Release Threshold (nM) D. melanogaster” value in assay [4] was less than 300 nM. Further, the “cytosolic [Ca2+], Sf9 transiently expressing H. virescens ryanodine receptor (FIG. 4)” value in assay [2] was “increase in cytosolic [Ca^2+]”. Besides, in assay [3] (caffeine 10 mM), the “calcium responses in control cells without DNA (FIG. 4)” value was “No significant calcium responses”. In assay [5], the IC50 – broadly, the point on the concentration scale where inhibition reaches its midpoint – is less than 300 nM.

The values are drawn from patent US7498408B2, “Ryanodine receptor polypeptides” (E. I. du Pont de Nemours and Company, priority 2002, dated 2009).
